Reference: patent US9902736B2, “1-oxo/acylation-14-acylated oridonin derivative, preparation method therefor and application thereof” (HANGZHOU BENSHENG PHARMACEUTICAL CO., LTD., priority 2012, dated 2018)
≈ marks a conversion by molar mass, not a printed value.

Legend:
[1] = system: SK-OV-3; experiment: Solid tumor cell growth inhibition, MTT, 72 h; assay type: cell-based; settings: Homo sapiens, SK-OV-3, 72 h, MTT; for IC50: read-out: IC50 SK-OV-3; for IC90: read-out: IC90 SK-OV-3
Summary of the method: (§1)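 Seed 6000 cells per well in high-glucose DMEM supplemented with 10% fetal bovine serum. Incubate 24 hours at 37° C, 5% CO2. Add compound dilutions, mix, return to the same conditions, then measure viable cells.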

[2] = system: CaEs-17; experiment: Solid tumor cell growth inhibition, MTT, 72 h; assay type: cell-based; settings: Homo sapiens, CaEs17
Summary of the method: as §1

[3] = system: MG-63; experiment: Solid tumor cell growth inhibition, MTT, 72 h; assay type: cell-based; settings: Homo sapiens
Summary of the method: as §1

[4] = system: U87-MG; experiment: Solid tumor cell growth inhibition, MTT, 72 h; assay type: cell-based; settings: Homo sapiens, U-87 MG
Summary of the method: as §1

[5] = system: PANC-1; experiment: Solid tumor cell growth inhibition, MTT, 72 h; assay type: cell-based; settings: Homo sapiens
Summary of the method: as §1

[6] = system: A549; experiment: Solid tumor cell growth inhibition, MTT, 72 h; assay type: cell-based; settings: Homo sapiens
Summary of the method: as §1

[7] = system: Hep G2; experiment: Solid tumor cell growth inhibition, MTT, 72 h; assay type: cell-based; settings: Homo sapiens, HepG2
Summary of the method: as §1

[8] = system: RKO; experiment: Solid tumor cell growth inhibition, MTT, 72 h; assay type: cell-based; settings: Homo sapiens
Summary of the method: as §1

[9] = system: Becap-37; experiment: Solid tumor cell growth inhibition, MTT, 72 h; assay type: cell-based; settings: Homo sapiens
Summary of the method: as §1

[10] = system: PC-3; experiment: Solid tumor cell growth inhibition, MTT, 72 h; assay type: cell-based; settings: Homo sapiens
Summary of the method: as §1

[11] = system: Kasumi-1; experiment: Leukemia cell growth inhibition, MTT, 72 h; assay type: cell-based; settings: Homo sapiens
Summary of the method: (§2)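 Cells (6000 per well) are plated and treated the following day with the derivatives across a concentration range. After 72 hours at 37° C in 5% CO2, viability is determined by MTT. The K562/ADR line is drug-resistant.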

[12] = system: K562/ADR; experiment: Leukemia cell growth inhibition, MTT, 72 h; assay type: cell-based; settings: Homo sapiens
Summary of the method: as §2

[13] = system: Jurkat; experiment: Leukemia cell growth inhibition, MTT, 72 h; assay type: cell-based, human; settings: Homo sapiens, Jurkat; 72 h, MTT
Summary of the method: as §2

[14] = system: NB4; experiment: Leukemia cell growth inhibition, MTT, 72 h; assay type: cell-based, human; settings: Homo sapiens, NB-4; 72 h, MTT
Summary of the method: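 Viability determined by MTT following a 72-hour, 37° C, 5% CO2 incubation with test compounds at different concentrations, added the day after seeding 6000 cells per well.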

[15] = system: H9; experiment: Leukemia cell growth inhibition, MTT, 72 h; assay type: cell-based, human; settings: Homo sapiens, H9; 72 h, MTT
Summary of the method: as §2

[16] = system: RPMI 8226; experiment: Multiple myeloma cell growth inhibition, MTT, 72 h; assay type: cell-based; settings: Homo sapiens
Summary of the method: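 Growth inhibition by MTT after 72 h drug exposure (37 °C, 5% CO2) over a concentration range of oridonin derivatives. RPMI 8226 cells plated at 6000 per well and dosed the following day.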

[17] = system: Hep-2; experiment: Solid tumor cell growth inhibition, MTT, 72 h; assay type: cell-based, human; settings: Homo sapiens, HEp-2; 72 h, MTT
Summary of the method: as §1

[18] = system: MGC-803; experiment: Solid tumor cell growth inhibition, MTT, 72 h; assay type: cell-based, human; settings: Homo sapiens, MGC-803; 72 h, MTT
Summary of the method: as §1

[19] = system: CNE; experiment: Solid tumor cell growth inhibition, MTT, 72 h; assay type: cell-based, human; settings: Homo sapiens, CNE; 72 h, MTT
Summary of the method: as §1

[20] = system: Hela; experiment: Solid tumor cell growth inhibition, MTT, 72 h; assay type: cell-based, human; settings: Homo sapiens, HeLa; 72 h, MTT
Summary of the method: as §1

| Structure (SMILES) | IC50 [1] [µg/mL] | IC90 [1] [µg/mL] | IC50 [2] [µg/mL] | IC90 [2] [µg/mL] | IC50 [3] [µg/mL] | IC90 [3] [µg/mL] | IC50 [4] [µg/mL] | IC90 [4] [µg/mL] | IC50 [5] [µg/mL] | IC90 [5] [µg/mL] | IC50 [6] [µg/mL] | IC90 [6] [µg/mL] | IC50 [7] [µg/mL] | IC90 [7] [µg/mL] | IC50 [8] [µg/mL] | IC90 [8] [µg/mL] | IC50 [9] [µg/mL] | IC90 [9] [µg/mL] | IC50 [10] [µg/mL] | IC90 [10] [µg/mL] | other results |
| --- | --- | --- | --- | --- | --- | --- | --- | --- | --- | --- | --- | --- | --- | --- | --- | --- | --- | --- | --- | --- | --- |
| C=C1C(=O)[C@]23[C@H](OC(=O)/C=C/c4ccccc4)[C@H]1CC[C@H]2[C@@]12CO[C@@]3(O)[C@@H](O)[C@@H]1C(C)(C)CC[C@@H]2OC(C)=O [BS-OR-094] | 1.66 (≈ 3.09 µM) | 4.52 (≈ 8.42 µM) | 0.94 (≈ 1.75 µM) | 6.26 (≈ 11.7 µM) | 0.47 (≈ 0.876 µM) | 1 (≈ 1.86 µM) | 0.6 (≈ 1.12 µM) | 1.86 (≈ 3.47 µM) | 1.82 (≈ 3.39 µM) | 9.91 (≈ 18.5 µM) | 2.87 (≈ 5.35 µM) | 9.95 (≈ 18.5 µM) | 1.42 (≈ 2.65 µM) | 7.47 (≈ 13.9 µM) | 0.38 (≈ 0.708 µM) | 0.75 (≈ 1.4 µM) | 1.15 (≈ 2.14 µM) | 3.31 (≈ 6.17 µM) | 1.66 (≈ 3.09 µM) | 4.52 (≈ 8.42 µM) | IC50 [11]: 0.72 µg/mL (≈ 1.34 µM); IC90 [11]: 1.72 µg/mL (≈ 3.21 µM); IC50 [12]: 0.7 µg/mL (≈ 1.3 µM); IC90 [12]: 2.17 µg/mL (≈ 4.04 µM); IC50 [13]: 0.65 µg/mL (≈ 1.21 µM); IC90 [13]: 2.68 µg/mL (≈ 4.99 µM); IC50 [14]: 0.1 µg/mL (≈ 0.186 µM); IC90 [14]: 0.49 µg/mL (≈ 0.913 µM); IC50 [15]: 0.19 µg/mL (≈ 0.354 µM); IC90 [15]: 0.49 µg/mL (≈ 0.913 µM); IC50 [16]: 0.49 µg/mL (≈ 0.913 µM); IC90 [16]: 1.75 µg/mL (≈ 3.26 µM); IC50 [17]: 1.68 µg/mL (≈ 3.13 µM); IC90 [17]: 7.46 µg/mL (≈ 13.9 µM); IC50 [18]: 1.39 µg/mL (≈ 2.59 µM); IC90 [18]: 12.1 µg/mL (≈ 22.5 µM); IC50 [19]: 1.32 µg/mL (≈ 2.46 µM); IC90 [19]: 5.04 µg/mL (≈ 9.39 µM); IC50 [20]: 1.54 µg/mL (≈ 2.87 µM); IC90 [20]: 4.45 µg/mL (≈ 8.29 µM) |
| C=C1C(=O)[C@]23[C@H](OC(=O)c4cccc(C)c4)[C@H]1CC[C@H]2[C@@]12CO[C@@]3(O)[C@@H](O)[C@@H]1C(C)(C)CCC2=O [BS-OR-008] | 1.59 (≈ 3.31 µM) | 3.67 (≈ 7.64 µM) | 1.22 (≈ 2.54 µM) | 4.75 (≈ 9.88 µM) | 0.42 (≈ 0.874 µM) | 0.98 (≈ 2.04 µM) | 0.86 (≈ 1.79 µM) | 2.4 (≈ 4.99 µM) | 1.73 (≈ 3.6 µM) | 11.4 (≈ 23.6 µM) | 2.75 (≈ 5.72 µM) | 6.86 (≈ 14.3 µM) | 1.74 (≈ 3.62 µM) | 12.6 (≈ 26.2 µM) | 0.47 (≈ 0.978 µM) | 0.94 (≈ 1.96 µM) | 1.08 (≈ 2.25 µM) | 3.35 (≈ 6.97 µM) | 1.59 (≈ 3.31 µM) | 3.67 (≈ 7.64 µM) | IC50 [11]: 0.73 µg/mL (≈ 1.52 µM); IC90 [11]: 1.84 µg/mL (≈ 3.83 µM); IC50 [12]: 0.52 µg/mL (≈ 1.08 µM); IC90 [12]: 2.33 µg/mL (≈ 4.85 µM); IC50 [13]: 0.73 µg/mL (≈ 1.52 µM); IC90 [13]: 2.6 µg/mL (≈ 5.41 µM); IC50 [14]: 0.29 µg/mL (≈ 0.603 µM); IC90 [14]: 0.92 µg/mL (≈ 1.91 µM); IC50 [15]: 0.76 µg/mL (≈ 1.58 µM); IC90 [15]: 1.79 µg/mL (≈ 3.72 µM); IC50 [16]: 0.37 µg/mL (≈ 0.77 µM); IC90 [16]: 1.72 µg/mL (≈ 3.58 µM); IC50 [17]: 3.11 µg/mL (≈ 6.47 µM); IC90 [17]: 13.2 µg/mL (≈ 27.4 µM); IC50 [18]: 1.39 µg/mL (≈ 2.89 µM); IC90 [18]: 3.89 µg/mL (≈ 8.09 µM); IC50 [19]: 2.16 µg/mL (≈ 4.49 µM); IC90 [19]: 10.5 µg/mL (≈ 21.8 µM); IC50 [20]: 1.45 µg/mL (≈ 3.02 µM); IC90 [20]: 3.9 µg/mL (≈ 8.12 µM) |
| C=C1C(=O)[C@]23[C@H](OC(=O)C4CCN(S(=O)(=O)c5cccc([N+](=O)[O-])c5)CC4)[C@H]1CC[C@H]2[C@@]12CO[C@@]3(O)[C@@H](O)[C@@H]1C(C)(C)CCC2=O [BS-OR-037] | 3.48 (≈ 5.28 µM) | 7.08 (≈ 10.7 µM) | 3.07 (≈ 4.66 µM) | 11.2 (≈ 16.9 µM) | 1.2 (≈ 1.82 µM) | 3.1 (≈ 4.71 µM) | 1.86 (≈ 2.82 µM) | 4.68 (≈ 7.1 µM) | 4.98 (≈ 7.56 µM) | 11.1 (≈ 16.8 µM) | 5.72 (≈ 8.68 µM) | 10.1 (≈ 15.4 µM) | 3.33 (≈ 5.06 µM) | > 16 | 0.91 (≈ 1.38 µM) | 1.84 (≈ 2.79 µM) | 2.75 (≈ 4.17 µM) | 7.47 (≈ 11.3 µM) | 3.48 (≈ 5.28 µM) | 7.08 (≈ 10.7 µM) | IC50 [11]: 1.41 µg/mL (≈ 2.14 µM); IC90 [11]: 3.19 µg/mL (≈ 4.84 µM); IC50 [12]: 1.32 µg/mL (≈ 2 µM); IC90 [12]: 3.6 µg/mL (≈ 5.47 µM); IC50 [13]: 1.16 µg/mL (≈ 1.76 µM); IC90 [13]: 4.4 µg/mL (≈ 6.68 µM); IC50 [14]: 0.35 µg/mL (≈ 0.531 µM); IC90 [14]: 1.66 µg/mL (≈ 2.52 µM); IC50 [15]: 1.64 µg/mL (≈ 2.49 µM); IC90 [15]: 3.46 µg/mL (≈ 5.25 µM); IC50 [16]: 1.7 µg/mL (≈ 2.58 µM); IC90 [16]: 3.73 µg/mL (≈ 5.66 µM); IC50 [17]: 3.58 µg/mL (≈ 5.43 µM); IC90 [17]: 15.3 µg/mL (≈ 23.2 µM); IC50 [18]: 3.18 µg/mL (≈ 4.83 µM); IC90 [18]: 6.35 µg/mL (≈ 9.64 µM); IC50 [19]: 2.95 µg/mL (≈ 4.48 µM); IC90 [19]: 8.76 µg/mL (≈ 13.3 µM); IC50 [20]: 3.41 µg/mL (≈ 5.18 µM); IC90 [20]: 10.1 µg/mL (≈ 15.3 µM) |
